Test results from patent US12617779B2, “Self degradation-type CDK9 inhibitor prodrug and liposome encapsulating same” (Sumitomo Pharma Co., Ltd., priority 2021, dated 2026).

Columns and labels:
[1] = Evaluation of conversion rate to active form in buffer solution (Experimental Example 1); assay type: physicochemical; settings: for Production rate of Alvocidib / Residual rate: 25 umol/L in buffer solution; for Stability in buffer solution at pH 5: pH 5, 37° C., up to 2 or 3 hours; for Conversion to Alvocidib at pH 7.4: pH 7.4, 37° C., up to 3 hours
Summary of the method: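 Prodrugs were held at 25 umol/L and 37° C in 50 mM citrate (pH 5.0, 5.5) or 50 mM phosphate (pH 6.0–7.4) buffer. Parent remaining and Alvocidib formed were quantified by HPLC at 0, 0.5, 1, 2 and 3 hours.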

[2] = Pharmacokinetic test, intravenous solution and liposome formulations in mice (Experimental Example 6); assay type: in vivo; settings: female BALB/c mice
Summary of the method: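 Solution or liposome formulation (ammonium sulfate-loaded HSPC/cholesterol/PEG-lipid liposomes, outer buffer 10 mM tartrate/10% sucrose pH 4) given IV to 7-week-old female BALB/c mice. Jugular blood sampled without anesthesia up to 24 h (solution) or 72 h (liposome); test compound and Alvocidib in plasma measured by LC-MS/MS.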

With `CN1CC[C@H](c2c(OC(=O)N(C)C[C@H]3CCCCN3)cc(O)c3c(=O)cc(-c4ccccc4Cl)oc23)[C@H](O)C1` [Example 4, 2-(2-chlorophenyl)-5-hydroxy-8-[(3S,4R)-3-hydroxy-1-methylpiperidin-4-yl]-4-oxo-4H-1-benzopyran-7-yl methyl{[(2R)-piperidin-2-yl]methyl}carbamate] the “Production rate of Alvocidib” value ([1]; pH5.0, 0 hr, 37° C.) was 0.5%, the Residual rate ([1]; pH5.0, 0 hr, 37° C.) was 99.3% and the “Stability in buffer solution at pH 5” value [1] was “stable”. For the same compound, the “Production rate of Alvocidib” value ([1]; pH5.0, 0.5 hr, 37° C.) was 0.8%, the Residual rate ([1]; pH5.0, 0.5 hr, 37° C.) was 98.5% and the “Production rate of Alvocidib” value ([1]; pH5.0, 1 hr, 37° C.) was 1.1%. For the same compound, the Residual rate ([1]; pH5.0, 1 hr, 37° C.) was 98.0%, the “Production rate of Alvocidib” value ([1]; pH5.0, 2 hr, 37° C.) was 1.7% and the Residual rate ([1]; pH5.0, 2 hr, 37° C.) was 96.8%. For the same compound, the “Production rate of Alvocidib” value ([1]; pH5.0, 3 hr, 37° C.) was 2.3%, the Residual rate ([1]; pH5.0, 3 hr, 37° C.) was 95.6% and the “Production rate of Alvocidib” value ([1]; pH5.5, 0 hr, 37° C.) was 0.4%. The Residual rate ([1]; pH5.5, 0 hr, 37° C.) was 99.2%, the “Production rate of Alvocidib” value ([1]; pH5.5, 0.5 hr, 37° C.) was 1.5% and the Residual rate ([1]; pH5.5, 0.5 hr, 37° C.) was 97.1%. The “Production rate of Alvocidib” value ([1]; pH5.5, 1 hr, 37° C.) was 2.2%, the Residual rate ([1]; pH5.5, 1 hr, 37° C.) was 95.5% and the “Production rate of Alvocidib” value ([1]; pH5.5, 2 hr, 37° C.) was 4.0%. For the same compound, the Residual rate ([1]; pH5.5, 2 hr, 37° C.) was 91.4%, the “Production rate of Alvocidib” value ([1]; pH5.5, 3 hr, 37° C.) was 5.5% and the Residual rate ([1]; pH5.5, 3 hr, 37° C.) was 87.9%. The “Production rate of Alvocidib” value ([1]; pH6.0, 0 hr, 37° C.) was 0.4%, the Residual rate ([1]; pH6.0, 0 hr, 37° C.) was 99.3% and the “Production rate of Alvocidib” value ([1]; pH6.0, 0.5 hr, 37° C.) was 3.7%. For the same compound, the Residual rate ([1]; pH6.0, 0.5 hr, 37° C.) was 91.9%, the “Production rate of Alvocidib” value ([1]; pH6.0, 1 hr, 37° C.) was 6.4% and the Residual rate ([1]; pH6.0, 1 hr, 37° C.) was 85.6%. For the same compound, the “Production rate of Alvocidib” value ([1]; pH6.0, 2 hr, 37° C.) was 12.0%, the Residual rate ([1]; pH6.0, 2 hr, 37° C.) was 72.4% and the “Production rate of Alvocidib” value ([1]; pH6.0, 3 hr, 37° C.) was 16.6%. The Residual rate ([1]; pH6.0, 3 hr, 37° C.) was 61.7%, the “Production rate of Alvocidib” value ([1]; pH6.5, 0 hr, 37° C.) was 0.5% and the Residual rate ([1]; pH6.5, 0 hr, 37° C.) was 99.3%. The “Production rate of Alvocidib” value ([1]; pH6.5, 0.5 hr, 37° C.) was 9.0%, the Residual rate ([1]; pH6.5, 0.5 hr, 37° C.) was 79.5% and the “Production rate of Alvocidib” value ([1]; pH6.5, 1 hr, 37° C.) was 15.1%. The Residual rate ([1]; pH6.5, 1 hr, 37° C.) was 65.1%, the “Production rate of Alvocidib” value ([1]; pH6.5, 2 hr, 37° C.) was 26.1% and the Residual rate ([1]; pH6.5, 2 hr, 37° C.) was 39.7%. The “Production rate of Alvocidib” value ([1]; pH6.5, 3 hr, 37° C.) was 32.7%, the Residual rate ([1]; pH6.5, 3 hr, 37° C.) was 24.9% and the “Production rate of Alvocidib” value ([1]; pH7.0, 0 hr, 37° C.) was 0.6%. The Residual rate ([1]; pH7.0, 0 hr, 37° C.) was 98.8%, the “Production rate of Alvocidib” value ([1]; pH7.0, 0.5 hr, 37° C.) was 21.3% and the Residual rate ([1]; pH7.0, 0.5 hr, 37° C.) was 51.3%. The “Production rate of Alvocidib” value ([1]; pH7.0, 1 hr, 37° C.) was 31.6%, the Residual rate ([1]; pH7.0, 1 hr, 37° C.) was 27.7% and the “Production rate of Alvocidib” value ([1]; pH7.0, 2 hr, 37° C.) was 41.1%. The Residual rate ([1]; pH7.0, 2 hr, 37° C.) was 0.0%, the “Production rate of Alvocidib” value ([1]; pH7.0, 3 hr, 37° C.) was 43.3% and the Residual rate ([1]; pH7.0, 3 hr, 37° C.) was 0.0%. The “Production rate of Alvocidib” value ([1]; pH7.4, 0 hr, 37° C.) was 0.8%, the Residual rate ([1]; pH7.4, 0 hr, 37° C.) was 98.4% and the “Conversion to Alvocidib at pH 7.4” value [1] was “rapidly converted to Alvocidib”. The “Production rate of Alvocidib” value ([1]; pH7.4, 0.5 hr, 37° C.) was 34.8%, the Residual rate ([1]; pH7.4, 0.5 hr, 37° C.) was 21.5% and the “Production rate of Alvocidib” value ([1]; pH7.4, 1 hr, 37° C.) was 42.0%. The Residual rate ([1]; pH7.4, 1 hr, 37° C.) was 0.0%, the “Production rate of Alvocidib” value ([1]; pH7.4, 2 hr, 37° C.) was 44.6% and the Residual rate ([1]; pH7.4, 2 hr, 37° C.) was 0.0%. The “Production rate of Alvocidib” value ([1]; pH7.4, 3 hr, 37° C.) was 44.6%, the Residual rate ([1]; pH7.4, 3 hr, 37° C.) was 0.0% and the “Blood retention of liposome formulation compared with the corresponding solution formulation” value [2] was “higher blood retention”.
For `CCCN(C[C@@H]1CCCCN1)C(=O)Oc1cc(O)c2c(=O)cc(-c3ccccc3Cl)oc2c1[C@H]1CCN(C)C[C@H]1O` [Example 5, 2-(2-chlorophenyl)-5-hydroxy-8-[(3S,4R)-3-hydroxy-1-methylpiperidin-4-yl]-4-oxo-4H-1-benzopyran-7-yl {[(2S)-piperidin-2-yl]methyl}propylcarbamate], the “Efficiency of conversion to Alvocidib” value ([1]; buffer solution, 37° C.) was “higher efficiency”, the “Production rate of Alvocidib” value ([1]; pH5.0, 0 hr, 37° C.) was 0.0% and the Residual rate ([1]; pH5.0, 0 hr, 37° C.) was 98.7%. For the same compound, the “Stability in buffer solution at pH 5” value [1] was “stable”, the “Production rate of Alvocidib” value ([1]; pH5.0, 0.5 hr, 37° C.) was 0.6% and the Residual rate ([1]; pH5.0, 0.5 hr, 37° C.) was 98.3%. The “Production rate of Alvocidib” value ([1]; pH5.0, 1 hr, 37° C.) was 1.1%, the Residual rate ([1]; pH5.0, 1 hr, 37° C.) was 97.8% and the “Production rate of Alvocidib” value ([1]; pH5.0, 2 hr, 37° C.) was 2.3%. The Residual rate ([1]; pH5.0, 2 hr, 37° C.) was 96.7%, the “Production rate of Alvocidib” value ([1]; pH5.0, 3 hr, 37° C.) was 3.4% and the Residual rate ([1]; pH5.0, 3 hr, 37° C.) was 95.8%. The “Production rate of Alvocidib” value ([1]; pH5.5, 0 hr, 37° C.) was 0.0%, the Residual rate ([1]; pH5.5, 0 hr, 37° C.) was 98.3% and the “Production rate of Alvocidib” value ([1]; pH5.5, 0.5 hr, 37° C.) was 1.2%. For the same compound, the Residual rate ([1]; pH5.5, 0.5 hr, 37° C.) was 97.2%, the “Production rate of Alvocidib” value ([1]; pH5.5, 1 hr, 37° C.) was 2.1% and the Residual rate ([1]; pH5.5, 1 hr, 37° C.) was 96.4%. For the same compound, the “Production rate of Alvocidib” value ([1]; pH5.5, 2 hr, 37° C.) was 3.9%, the Residual rate ([1]; pH5.5, 2 hr, 37° C.) was 94.5% and the “Production rate of Alvocidib” value ([1]; pH5.5, 3 hr, 37° C.) was 5.7%. For the same compound, the Residual rate ([1]; pH5.5, 3 hr, 37° C.) was 92.7%, the “Production rate of Alvocidib” value ([1]; pH6.0, 0 hr, 37° C.) was 0.0% and the Residual rate ([1]; pH6.0, 0 hr, 37° C.) was 98.7%. The “Production rate of Alvocidib” value ([1]; pH6.0, 0.5 hr, 37° C.) was 3.6%, the Residual rate ([1]; pH6.0, 0.5 hr, 37° C.) was 95.2% and the “Production rate of Alvocidib” value ([1]; pH6.0, 1 hr, 37° C.) was 6.6%. The Residual rate ([1]; pH6.0, 1 hr, 37° C.) was 92.2%, the “Production rate of Alvocidib” value ([1]; pH6.0, 2 hr, 37° C.) was 12.8% and the Residual rate ([1]; pH6.0, 2 hr, 37° C.) was 85.7%. The “Production rate of Alvocidib” value ([1]; pH6.0, 3 hr, 37° C.) was 18.6%, the Residual rate ([1]; pH6.0, 3 hr, 37° C.) was 79.8% and the “Production rate of Alvocidib” value ([1]; pH6.5, 0 hr, 37° C.) was 0.0%. For the same compound, the Residual rate ([1]; pH6.5, 0 hr, 37° C.) was 98.4%, the “Production rate of Alvocidib” value ([1]; pH6.5, 0.5 hr, 37° C.) was 9.5% and the Residual rate ([1]; pH6.5, 0.5 hr, 37° C.) was 88.9%. For the same compound, the “Production rate of Alvocidib” value ([1]; pH6.5, 1 hr, 37° C.) was 17.1%, the Residual rate ([1]; pH6.5, 1 hr, 37° C.) was 80.9% and the “Production rate of Alvocidib” value ([1]; pH6.5, 2 hr, 37° C.) was 32.1%. For the same compound, the Residual rate ([1]; pH6.5, 2 hr, 37° C.) was 65.5%, the “Production rate of Alvocidib” value ([1]; pH6.5, 3 hr, 37° C.) was 44.2% and the Residual rate ([1]; pH6.5, 3 hr, 37° C.) was 52.6%. The “Production rate of Alvocidib” value ([1]; pH7.0, 0 hr, 37° C.) was 0.0%, the Residual rate ([1]; pH7.0, 0 hr, 37° C.) was 98.4% and the “Production rate of Alvocidib” value ([1]; pH7.0, 0.5 hr, 37° C.) was 25.0%. The Residual rate ([1]; pH7.0, 0.5 hr, 37° C.) was 72.7%, the “Production rate of Alvocidib” value ([1]; pH7.0, 1 hr, 37° C.) was 41.9% and the Residual rate ([1]; pH7.0, 1 hr, 37° C.) was 55.0%. The “Production rate of Alvocidib” value ([1]; pH7.0, 2 hr, 37° C.) was 66.7%, the Residual rate ([1]; pH7.0, 2 hr, 37° C.) was 28.7% and the “Production rate of Alvocidib” value ([1]; pH7.0, 3 hr, 37° C.) was 79.9%. For the same compound, the Residual rate ([1]; pH7.0, 3 hr, 37° C.) was 15.0%, the “Production rate of Alvocidib” value ([1]; pH7.4, 0 hr, 37° C.) was 0.0% and the Residual rate ([1]; pH7.4, 0 hr, 37° C.) was 98.7%. The “Conversion to Alvocidib at pH 7.4” value [1] was “rapidly converted to Alvocidib”, the “Production rate of Alvocidib” value ([1]; pH7.4, 0.5 hr, 37° C.) was 47.5% and the Residual rate ([1]; pH7.4, 0.5 hr, 37° C.) was 49.4%. The “Production rate of Alvocidib” value ([1]; pH7.4, 1 hr, 37° C.) was 69.8%, the Residual rate ([1]; pH7.4, 1 hr, 37° C.) was 25.9% and the “Production rate of Alvocidib” value ([1]; pH7.4, 2 hr, 37° C.) was 88.9%. For the same compound, the Residual rate ([1]; pH7.4, 2 hr, 37° C.) was 5.9%, the “Production rate of Alvocidib” value ([1]; pH7.4, 3 hr, 37° C.) was 93.2% and the Residual rate ([1]; pH7.4, 3 hr, 37° C.) was 1.5%. For the same compound, the “Blood retention of liposome formulation compared with the corresponding solution formulation” value [2] was “higher blood retention”.
